Experimental data: patent US20260256789A1, “METHODS FOR TREATMENT OF CANCER” (Frontier Medicines Corporation, priority 2022, published 2026)

Biological target: T1, KRAS G12C (GMPPNP-loaded) and cRAF Ras-binding domain (Homo sapiens, UniProt P01116, C118S/C51S/C80L/G12C)
T1 construct: truncated version comprising amino acids 1-169
Assay: Inhibition of KRAS G12C and cRAF binding (AlphaScreen)
Settings: KRAS G12C preloaded with GTP analogue GMPPNP, 2 hours preincubation
Description: The ability of compounds of Formula (A), Formula (B) and Formula (C), and pharmaceutically acceptable salts and/or isotopologues thereof, to inhibit activity of the GTP-bound form of KRAS G12C can be tested using methods such as the in vitro assay described in Example 179 below. Example 179 describes determining, for various compounds, the half-maximal inhibition (IC50) of KRAS G12C loaded with GTP analogue GMPPNP from binding to cRaf, as the Ras-binding domain (RBD). Example 180 describes determining, for various compounds, the half-maximal inhibition (IC50) of KRAS G12C loaded with GTP analogue GMPPNP from binding to PI3Kα, as the Ras-binding domain (RBD). Example 181 describes testing compounds for the ability to inhibit cell viability in MCF10A G12C/A59G mutant, which abrogates GTPase activity, thus preventing hydrolysis of GTP to GDP.
The AlphaScreen technology was used to determine IC50s for compound inhibition of KRAS G12C (present as the Cys-light (C51S, C80L and C118S), truncated version comprising amino acids 1-169) and cRAF interaction. Compounds were diluted in 100% DMSO and each compound concentration was spotted at 200 nl/well onto low volume, white 384 well plates. The KRAS G12C contained a biotin-AviTag and the cRaf, as Ras-binding domain (amino acids 50-131, RBD), was GST-tagged. KRAS G12C was preloaded with the GTP analogue Guanosine 5′-[β,γ-imido]triphosphate (GMPPNP). The KRAS G12C was diluted in 25 mM Hepes, pH 7.4, 150 mM NaCl, 5 mM MgCl2, 0.01% TritonX-100 and 10 μM GMPPNP and added at 10 ul/well to compound-spotted plates resulting in a DMSO concentration of 2%. Plates were incubated for 2 hours. A mixture of RBD and the AlphaScreen streptavidin donor and glutathione acceptor beads diluted in 25 mM Hepes, pH 7.4, 150 mM NaCl, 5 mM MgCl2, 0.01% TritonX-100 and 2% DMSO was then added at 10 ul/well and incubated for 60-90 minutes before the samples were read for emission at 570 nm after excitation of the donor beads at 680 nm. All incubations were performed at room temperature. The final top compound concentration was 50 μM with 1:3 titrations for 10-point dose response curves. Final assay conditions were 0.5 nM KRAS G12C, 0.75 nM RBD and 5 μg/ml each of AlphaScreen donor and acceptor beads. IC50s were determined using nonlinear regression fit of [inhibitor] vs. response (4 parameters). […]

T1 sequence (P01116 1-169 isoform P01116-2 G12C/C51S/C80L/C118S): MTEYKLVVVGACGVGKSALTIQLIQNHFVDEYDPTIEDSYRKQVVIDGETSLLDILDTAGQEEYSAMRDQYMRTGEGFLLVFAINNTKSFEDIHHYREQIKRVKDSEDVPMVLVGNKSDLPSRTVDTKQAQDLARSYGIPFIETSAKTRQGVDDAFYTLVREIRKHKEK

## Cc1noc(/C=C/C(=O)N2CC[C@@H](N(C)c3nc(OC[C@@]45CCCN4C[C@H](F)C5)nc4c3C[C@@H](C)[C@H](c3nc(N)cc(C)c3C(F)(F)F)C4)C2)n1 [Example 136]
  IC50: < 10 nM

## CN(CC1CN(C(=O)/C=C/c2nc(C(C)(F)F)no2)C1)c1nc(OC[C@@]23CCCN2C[C@H](F)C3)nc2c(F)c(-c3nc(N)cc4cccc(Cl)c34)ncc12 [Example 169, (E)-1-(3-(((7-(3-amino-8-chloroisoquinolin-1-yl)-8-fluoro-2-(((2R,7aS)-2-fluorotetrahydro-1H-pyrrolizin-7a(5H)-yl)methoxy)pyrido[4,3-d]pyrimidin-4-yl)(methyl)amino)methyl)azetidin-1-yl)-3-(3-(1,1-difluoroethyl)-1,2,4-oxadiazol-5-yl)prop-2-en-1-one]
  IC50: < 10 nM

## C=CC(=O)N1CC[C@@H](N(C)c2nc(OC[C@@]34CCCN3C[C@H](F)C4)nc3c(F)c(-c4cccc(OC(F)F)c4C4CC4)ncc23)C1 [Example 187]
  IC50: ≥ 500 nM

## C=CC(=O)N1CC[C@@H](N(C)c2nc(OC[C@@]34CCCN3C[C@H](F)C4)nc3c(F)c(-c4nc(N)cc(C)c4C)ncc23)C1 [Example 171]
  IC50: 100 to 500 nM

## C=CC(=O)N1CC[C@@H](N(C)c2nc(OC[C@@]34CCCN3C[C@H](F)C4)nc3c(F)c(-c4cc(O)cc(Cl)c4C(F)(F)F)ncc23)C1 [Example 248]
  IC50: < 10 nM

## CN(c1nc(OC[C@@]23CCCN2C[C@H](F)C3)nc2c(F)c(-c3nc(N)cc4cccc(F)c34)ncc12)[C@@H]1CCN(C(=O)/C=C/c2nc(C(C)(F)F)no2)C1 [Example 92]
  IC50: < 10 nM

## Cc1cc(N)nc(-c2ncc3c(N(C)[C@@H]4CCN(C#N)C4)nc(OC[C@@]45CCCN4C[C@H](F)C5)nc3c2F)c1C(F)(F)F [Example 239]
  IC50: < 10 nM

## C=CC(=O)N1CC[C@@H](N(C)c2nc(OC[C@@]34CCCN3C[C@H](F)C4)nc3c(F)c(-c4nc(N)cc(C)c4C(F)(F)F)ncc23)C1 [Example 72, 1-((R)-3-((7-(6-amino-4-methyl-3-(trifluoromethyl)pyridin-2-yl)-8-fluoro-2-(((2R,7aS)-2-fluorotetrahydro-1H-pyrrolizin-7a(5H)-yl)methoxy)pyrido[4,3-d]pyrimidin-4-yl)(methyl)amino)pyrrolidin-1-yl)prop-2-en-1-one]
  IC50: 10 to 100 nM

## C=CC(=O)N1CC[C@@H](N(C)c2nc(OC[C@@]34CCCN3C[C@H](F)C4)nc3c(F)c(-c4nc(N)cc5cccc(Cl)c45)ncc23)C1 [Example 74, 1-((R)-3-((7-(3-amino-8-chloroisoquinolin-1-yl)-8-fluoro-2-(((2R,7aS)-2-fluorohexahydro-1H-pyrrolizin-7a-yl)methoxy)pyrido[4,3-d]pyrimidin-4-yl)(methyl)amino)pyrrolidin-1-yl)prop-2-en-1-one]
  IC50: 10 to 100 nM

## CC(C)c1noc(/C=C/C(=O)N2CC[C@@H](N(C)c3nc(OC[C@@]45CCCN4C[C@H](F)C5)nc4c(F)c(-c5nc(N)ccc5OC(F)F)ncc34)C2)n1 [Example 214]
  IC50: 10 to 100 nM

## Cc1nsc(/C=C/C(=O)N2CC(CN(C)c3nc(OC[C@@]45CCCN4C[C@H](F)C5)nc4c(F)c(-c5nc(N)cc(C)c5C(F)(F)F)ncc34)C2)n1 [Example 4, (E)-1-(3-(((7-(6-amino-4-methyl-3-(trifluoromethyl)pyridin-2-yl)-8-fluoro-2-(((2R,7aS)-2-fluorohexahydro-1H-pyrrolizin-7a-yl)methoxy)pyrido[4,3-d]pyrimidin-4-yl)(methyl)amino)methyl)azetidin-1-yl)-3-(3-methyl-1,2,4-thiadiazol-5-yl)prop-2-en-1-one]
  IC50: 10 to 100 nM

## Cc1cc(N)nc(-c2ncc3c(N(C)[C@@H]4CCN(C(=O)/C=C/CN(C)C)C4)nc(OC[C@@]45CCCN4C[C@H](F)C5)nc3c2F)c1C(F)(F)F [Example 62, (E)-1-((R)-3-((7-(6-amino-4-methyl-3-(trifluoromethyl)pyridin-2-yl)-8-fluoro-2-(((2R,7aS)-2-fluorohexahydro-1H-pyrrolizin-7a-yl)methoxy)pyrido[4,3-d]pyrimidin-4-yl)(methyl)amino)pyrrolidin-1-yl)-4-(dimethylamino)but-2-en-1-one]
  IC50: 10 to 100 nM

## C=CC(=O)N1CC[C@@H](N(C)c2nc(OC[C@@]34CCCN3C[C@H](F)C4)nc3c(F)c(-c4nc(N)cc5cccc(F)c45)ncc23)C1 [Example 76, 1-((R)-3-((7-(3-amino-8-fluoroisoquinolin-1-yl)-8-fluoro-2-(((2R,7aS)-2-fluorohexahydro-1H-pyrrolizin-7a-yl)methoxy)pyrido[4,3-d]pyrimidin-4-yl)(methyl)amino)pyrrolidin-1-yl)prop-2-en-1-one]
  IC50: 10 to 100 nM

## C=CC(=O)N1CC[C@@H](N(C)c2nc(OC[C@@]34CCCN3C[C@H](F)C4)nc3c(F)c(-c4nc(N)ccc4F)ncc23)C1 [Example 96, 1-((R)-3-((7-(6-amino-3-fluoropyridin-2-yl)-8-fluoro-2-(((2R,7aS)-2-fluorotetrahydro-1H-pyrrolizin-7a(5H)-yl)methoxy)pyrido[4,3-d]pyrimidin-4-yl)(methyl)amino)pyrrolidin-1-yl)prop-2-en-1-one]
  IC50: ≥ 500 nM

## Cc1noc(/C=C/C(=O)N2CC[C@@H](N(C)c3nc(OC[C@@]45CCCN4C[C@H](F)C5)nc4c3CC(C)C(c3nc(N)cc(C)c3C(F)(F)F)C4)C2)n1 (stereo partly drawn) [Example 65, (E)-1-((3R)-3-((7-(6-amino-4-methyl-3-(trifluoromethyl)pyridin-2-yl)-2-(((2R,7aS)-2-fluorohexahydro-1H-pyrrolizin-7a-yl)methoxy)-6-methyl-5,6,7,8-tetrahydroquinazolin-4-yl)(methyl)amino)pyrrolidin-1-yl)-3-(3-methyl-1,2,4-oxadiazol-5-yl)prop-2-en-1-one]
  IC50: < 10 nM

## C=CC(=O)N1CC[C@@H](N(C)c2nc(OC[C@@]34CCCN3C[C@H](F)C4)nc3c(F)c(-c4cncc(F)c4C4CC4)ncc23)C1 [Example 188]
  IC50: ≥ 500 nM

## CN(c1nc(OC[C@@]23CCCN2C[C@H](F)C3)nc2c(F)c(-c3cccc(Cl)c3C3CC3)ncc12)[C@@H]1CCN(C(=O)C#CCN2CCOCC2)C1 [Example 223]
  IC50: 100 to 500 nM

## Cc1cc(N)nc(-c2ncc3c(N(C)CC4CN(C(=O)/C=C/c5nc(C(C)C)no5)C4)nc(OC[C@@]45CCCN4C[C@H](F)C5)nc3c2F)c1C [Example 85]
  IC50: 100 to 500 nM

## CO[C@H]1CCN(C/C=C/C(=O)N2CC[C@@H](N(C)c3nc(OC[C@@]45CCCN4C[C@H](F)C5)nc4c(F)c(-c5cccc(Cl)c5C5CC5)ncc34)C2)C1 [Example 210]
  IC50: 10 to 100 nM

## C=CC(=O)N1CC[C@@H](N(C)c2nc(OCC34CCCN3CCC4)nc3c(F)c(-c4nc(N)cc5cccc(Cl)c45)ncc23)C1 [Example 69, (R)-1-(3-((7-(3-amino-8-chloroisoquinolin-1-yl)-8-fluoro-2-((hexahydro-1H-pyrrolizin-7a-yl)methoxy)pyrido[4,3-d]pyrimidin-4-yl)(methyl)amino)pyrrolidin-1-yl)prop-2-en-1-one]
  IC50: 100 to 500 nM

## Cc1cc(N)nc(N2CCc3c(nc(OC[C@@]45CCCN4C[C@H](F)C5)nc3N(C)[C@@H]3CCN(C(=O)/C=C/c4nc(C(C)C)no4)C3)C2)c1C(F)(F)F [Example 147, (E)-1-((R)-3-((7-(6-amino-4-methyl-3-(trifluoromethyl)pyridin-2-yl)-2-(((2R,7aS)-2-fluorotetrahydro-1H-pyrrolizin-7a(5H)-yl)methoxy)-5,6,7,8-tetrahydropyrido[3,4-d]pyrimidin-4-yl)(methyl)amino)pyrrolidin-1-yl)-3-(3-isopropyl-1,2,4-oxadiazol-5-yl)prop-2-en-1-one]
  IC50: ≥ 500 nM

## C=CC(=O)N1CC[C@@H](N(C)c2nc(OC[C@@]34CCCN3C[C@H](F)C4)nc3c(F)c(-c4c(C)cc(F)c5[nH]ncc45)ncc23)C1 [Example 232]
  IC50: ≥ 500 nM

## C=CC(=O)N1CC[C@@H](N(C)c2nc(OC[C@@]34CCCN3C[C@H](F)C4)nc3c(F)c(-c4cccc(C(F)F)c4C4CC4)ncc23)C1 [Example 195]
  IC50: ≥ 500 nM

## Cc1nccc(/C=C/C(=O)N2CC(CN(C)c3nc(OC[C@@]45CCCN4C[C@H](F)C5)nc4c(F)c(-c5nc(N)cc6cccc(Cl)c56)ncc34)C2)n1 [Example 156, (E)-1-(3-(((7-(3-amino-8-chloroisoquinolin-1-yl)-8-fluoro-2-(((2R,7aS)-2-fluorotetrahydro-1H-pyrrolizin-7a(5H)-yl)methoxy)pyrido[4,3-d]pyrimidin-4-yl)(methyl)amino)methyl)azetidin-1-yl)-3-(2-methylpyrimidin-4-yl)prop-2-en-1-one]
  IC50: 10 to 100 nM
